Here are results for 23 compounds from patent publication US20240208969A1, “SUBSTITUTED FUSED BICYCLIC COMPOUNDS AS PARP INHIBITORS AND THE USE THEREOF” (IMPACT THERAPEUTICS (SHANGHAI), INC., priority 2021, published 2024).

This experiment has as its system MDA-MB-436 cells. Kind of experiment: Inhibition of proliferation of human breast cancer MDA-MB-436 cell line (CCK-8, 7 days). The format is cell-based. The note with it: Homo sapiens, 168 h, proliferation of MDA-MB-436, 7 days. On the procedure:
The cells were cultured in complete medium (DMEM medium +10% FBS+Insulin+glutathione). When the confluence reached about 80%, cells were digested and gently dispensed from the bottom of the dish with a 1 mL pipette. Cell suspension was collected and centrifuged at 500 rpm for 3 min. The supernatant was discarded, and the cell pellet were re-suspended in complete medium. The cells were seeded into a culture dish at an appropriate proportion, and then cultured in a 5% CO2 incubator at 37° C. The assay was carried out when the cells were in optimum condition and the confluence was reached 80%. Cells were harvested in the logarithmic growth phase by using 1 mL pipette gently and then centrifugated at 500 rpm for 3 min. The cells were resuspended by using refresh medium after removing the supernatant and then the cells were counted. The cells were seeded at 3000/well in a 96 well plate and incubated at 37° C. 5% CO2 incubator overnight. In the second day, cells were treated with compound at 8 serially diluted dose with 1000×final concentration in 100% DMSO. The compound was prepared as below: 1000×dilution tested compound solution to 40×test compound solution by adding 5μL, 1000×compound solution to 120 μL Medium (25-fold dilution). The solution was mixed by oscillation. DMSO was used as the control.
The medium was removed from the wells in the plate after the plate was taken out from incubator. Then, fresh medium of 195 μL/per well was added to the 96 well plate. 5μL/per well of 40×test compound solution was added into the 96 well plate. Finally, the plate was incubated for 7 days in a 37° C. 5% CO2 incubator. The medium containing compound was changed once on the fourth day. After 7 days, 20 μL of CCK-8 was added to each well and shake gently, then was cultured for 4 hours. The plate was shaken for 5 min after incubation, the absorbance values of 450 nm. and 650nm wavelengths were recorded respectively (OD=absorbance value of 450 nm−absorbance value of 650 nm) by using the multifunction readout instrument.
Data were analyzed by software GraphPad Prism 6.0. The inhibitory activity of compounds on cell proliferation was plotted using cell survival rate against the compound concentration as coordinates. Cell survival rate %=(ODcompound−ODbackground)/(ODDMSO−ODbackground)×100. The IC50 value was fitted by the s-shaped dose response curve equation: Y=100/(1+10^(log C−log IC50)), and C was the compound concentration.
Table 2 summarizes the inhibitory effect data (IC50) of the compounds on the proliferation of human breast cancer cells MDA-MB-436, wherein ++++ indicates 1<IC50≤10 nM; +++ indicates 10 nM<IC50≤100 nM; ++ indicates 100 nM<IC50≤1 μM; + indicates IC50>1 μM.
`CCn1c(=O)[nH]c2cc(CN3CCN(c4ccc(C(=O)NC)cc4Cl)CC3)ccc2c1=O` [Example 70, 3-chloro-4-(4-((3-ethyl-2,4-dioxo-1,2,3,4-tetrahydroquinazolin-7-yl)methyl)piperazin-1-yl)-N-methylbenzamide] yielded an IC50 above 1000 nM. `CNC(=O)c1ccc(N2CCN(Cc3cnc4c(=O)n(C)c(=O)[nH]c4c3)CC2)cn1` [Example 2, 5-(4-((3-methyl-2,4-dioxo-1,2,3,4-tetrahydropyrido[3,2-d]pyrimidin-7-yl)methyl)piperazin-1-yl)-N-methylpicolinamide]: the IC50 was above 1000 nM. On to `CCn1c(=O)[nH]c2cc(-c3cc(F)cc(C(=O)Nc4ccc(C(=O)NC)nc4)c3)ccc2c1=O` [Example 43, 5-(3-(3-ethyl-2,4-dioxo-1,2,3,4-tetrahydroquinazolin-7-yl)-5-fluorobenzamido)-N-methylpicolinamide], for which the IC50 is above 1000 nM. The compound `CCN1Cc2ccc(CN3CCN(c4ccc(C(=O)NC5CC5)nc4Cl)CC3)cc2NC1=O` [Example 132, 6-chloro-N-cyclopropyl-5-(4-((3-ethyl-2-oxo-1,2,3,4-tetrahydroquinazolin-7-yl)methyl)piperazin-1-yl)picolinamide] registered an IC50 of 1 to 10 nM. On to `CCn1c(=O)[nH]c2cc(CN3CCN(c4ccc(C(=O)NC)cc4F)CC3)ccc2c1=O` [Example 69, 4-(4-((3-ethyl-2,4-dioxo-1,2,3,4-tetrahydroquinazolin-7-yl)methyl)piperazin-1-yl)-3-fluoro-N-methyibenzamide], for which the IC50 was above 1000 nM. On to `CCn1c(=O)[nH]c2cc(CN3CCN(c4ccc(C(=O)NC)nc4Cl)CC3)c(Cl)cc2c1=O` [Example 65, 6-chloro-5-(4-((6-chloro-3-ethyl-2,4-dioxo-1,2,3,4-tetrahydroquinazolin-7-yl)methyl)piperazin-1-yl)-N-methylpicolinamide], for which the IC50 lay within 100 to 1000 nM. Turning to `CCNC(=O)c1ccc(N2CCN(Cc3cc(F)c4c(=O)n(CC)c(=O)[nH]c4c3)CC2)c(C)n1` [Example 82, N-ethyl-5-(4-((3ethyl-5-fluoro-2,4-dioxo-1,2,3,4-tetrahydroquinazolin-7-yl)methyl)piperazin-1-yl)-6-methylpicolinamide], the IC50 is 10 to 100 nM. Turning to `CCNC(=O)c1ccc(N2CCN(Cc3cc(F)c4c(c3)NC(=O)N(CC)C4)CC2)c(C)n1` [Example 121, N-ethyl-5-(4-((3-ethyl-5-fluoro-2-oxo-1,2,3,4-tetrahydroquinazolin-7-yl)methyl)piperazin-1-yl)-6-methylpicolinamide], the IC50 was 10 to 100 nM. As to `CNC(=O)c1ccc(N2CCN(Cc3cc(F)c4c(=O)n(C)c(=O)[nH]c4c3)CC2)c(C)n1` [Example 105, 5-(4-((5-fluoro-3-methyl-2,4-dioxo-1,2,3,4-tetrahydroquinazolin-7-yl)methyl)piperazin-1-yl)-N,6-dimethylpicolinamide], the IC50 was 100 to 1000 nM. For the compound `CCn1c(=O)[nH]c2cc(CN3CCN(c4ccc5cn[nH]c5c4)CC3)ccc2c1=O` [Example 111, 7-((4-(1H-indazol-6-yl)piperazin-1-yl)methyl)-3-ethylquinazoline-2,4(1H,3H)-dione], the IC50 was above 1000 nM. The compound `CCN1Cc2ccc(CN3CCN(c4ccc(C(=O)NC5CC5)nc4C)CC3)cc2NC1=O` [Example 137, N-cyclopropyl-5-(4-((3-ethyl-2-oxo-1,2,3,4-tetrahydroquinazolin-7-yl)methyl)piperazin-1-yl)-6-methylpicolinamide] came in with an IC50 of 10 to 100 nM. `CCn1c(=O)[nH]c2cc(CN3CCN(c4ccc(C(=O)NC)nc4C)CC3)cc(Cl)c2c1=O` [Example 59, 5-(4-((5-chloro-3-ethyl-2,4-dioxo-1,2,3,4-tetrahydroquinazolin-7-yl)methyl)piperazin-1-yl)-N,6-dimethylpicolinamide]: the IC50 fell in the range of 10 to 100 nM. Compound `CCn1c(=O)[nH]c2cc(CN3CCN(c4ccc(C(=O)NC5CC5)nc4F)CC3)cc(F)c2c1=O` [Example 141, N-cyclopropyl-5-(4-((3-ethyl-5-fluoro-2,4-dioxo-1,2,3,4-tetrahydroquinazolin-7-yl)methyl)piperazin-1-yl)-6-fluoropicolinamide] displayed an IC50 of 1 to 10 nM. For `CCNC(=O)c1ccc(N2CCN(Cc3cnc4c(=O)n(CC)c(=O)[nH]c4c3)CC2)c(C)n1` [Example 103, N-ethyl-5-(4-((3-ethyl-2,4-dioxo-1,2,3,4-tetrahydropyrido[3,2-d]pyrimidin-7-yl)methyl)piperazin-1-yl)-6-methylpicolinamide], the IC50 lay within 10 to 100 nM. Consider `CCn1c(=O)[nH]c2cc(CN3CCN(c4ccc5c(c4)CCN(C)C5=O)CC3)ccc2c1=O` [Example 36, 3-ethyl-7-((4-(2-methyl-1-oxo-1,2,3,4-tetrahydroisoquinolin-6-yl)piperazin-1-yl)methyl)quinazoline-2,4(1H,3H)-dione], for which the IC50 is above 1000 nM.

Compound `CCn1c(=O)[nH]c2cc(CN3CCN(c4ncc(C(=O)NC)cc4C)CC3)ccc2c1=O` [Example 79, 6-(4-((3-ethyl-2,4-dioxo-1,2,3,4-tetrahydroquinazolin-7-yl)methyl)piperazin-1-yl)-N,5-dimethylnicotinamide] showed an IC50 above 1000 nM. In the case of `CCn1c(=O)[nH]c2cc(CN3CCN(c4ccc(C(=O)NC)nc4)CC3)ncc2c1=O` [Example 5, 5-(4-((3-ethyl-2,4-dioxo-1,2,3,4-tetrahydropyrido[4,3-d]pyrimidin-7-yl)methyl)piperazin-1-yl)-N-methylpicolinamide] it was above 1000 nM. With `CNC(=O)c1ccc(N2CCN(Cc3ccc4c(=O)n(CC(F)(F)F)c(=O)[nH]c4c3)CC2)c(C)n1` [Example 87, 5-(4-((2,4-dioxo-3-(2,2,2-trifluoroethyl)-1,2,3,4-tetrahydroquinazolin-7-yl)methyl)piperazin-1-yl)-N,6-dimethylpicolinamide], the IC50 was above 1000 nM.

With `CCn1c(=O)[nH]c2cc(CN3CCN(c4cnc(C(=O)NC)cn4)CC3)ccc2c1=O` [Example 57, 5-(4-((3-ethyl-2,4-dioxo-1,2,3,4-tetrahydroquinazolin-7-yl)methyl)piperazin-1-yl)-N-methylpyrazine-2-carboxamide], the IC50 is above 1000 nM.

`CCn1c(=O)[nH]c2cc(CN3CCN(c4ccc(C(=O)NC)nc4C(C)C)CC3)ccc2c1=O` [Example 80, 5-(4-((3-ethyl-2,4-dioxo-1,2,3,4-tetrahydroquinazolin-7-yl)methyl)piperazin-1-yl)-6-isopropyl-N-methylpicolinamide] displayed an IC50 above 1000 nM. `CCN1Cc2c(F)cc(CN3CCN(c4ccc(C(=O)NC)nc4F)CC3)cc2NC1=O` [Example 134, 5-(4-((3-ethyl-5-fluoro-2-oxo-1,2,3,4-tetrahydroquinazolin-7-yl)methyl)piperazin-1-yl)-6-fluoro-N-methylpicolinamide] showed an IC50 of 10 to 100 nM. Compound `CCn1c(=O)[nH]c2cc(CN3CCN(c4ccc(C(=O)N(C)C)nc4F)CC3)ccc2c1=O` [Example 39, 5-(4-((3-ethyl-2,4-dioxo-1,2,3,4-tetrahydroquinazolin-7-yl)methyl)piperazin-1-yl)-6-fluoro-N,N-dimethylpicolinamide] showed an IC50 above 1000 nM. Compound `CCn1c(=O)[nH]c2cc(CN3CCN(c4ccc(C(=O)NC5CC5)nc4Cl)CC3)cc(Cl)c2c1=O` [Example 131, 6-chloro-5-(4-((5-chloro-3-ethyl-2,4-dioxo-1,2,3,4-tetrahydroquinazolin-7-yl)methyl)piperazin-1-yl)-N-cyclopropylpicolinamide] showed an IC50 of 1 to 10 nM.

Usually IC50 stands for the point on the concentration scale where inhibition reaches its midpoint.
